Data taken from article PMC11887451, “Leveraging Immunogenic Cell Death to Enhance the Immune Response against Malignant Pleural Mesothelioma Tumors” (Journal of the American Chemical Society, 2025).

How the values were obtained:
AB12 cells = assay: Annexin V/PI assay (necrosis), flow cytometry; type: cell-based, mouse; details: AB12, 5 × IC50 (72 h), 100 min
Description: centrifugation of the cells (300 × g, 5 min), 5 ml of fresh RPMI was introduced, and the cells were seeded at a density of 5 x 10^5 cells per well into Cellstar 6-well plates (Greiner Bio-One) (1 ml per well). J774 macrophages (70-80% confluence in a T75 flask) were detached by scraping, centrifuged (300 × g, 5 min). The medium was substituted with 1 ml of DMEM containing CellTracker Green CMFDA (1 μM) and the J774 macrophages were stained at 37°C for 30 minutes. Following centrifugation of the J774 macrophages (300 × g, 5 min), 5 ml of fresh DMEM was introduced, and the macrophages were seeded into a 100 cm2 petri dish (SPL Life Sciences, Korea). After 24 h, the media in AB12 cells was replaced with 1 ml of fresh RPMI containing compounds of interest at equipotent concentration of 5 × IC50 and incubated for 100 minutes. After removing the drug-containing media, the cells were trypsinized (0.5 ml), neutralized with 1 ml of RPMI, centrifuged (300 × g, 5 min) and counted. From each sample, 2 × 10^5 AB12 cells were seeded into Cellstar 6-well plates (Greiner Bio-One) (1 ml per well).
2 × 10^5 J774 macrophages were detached from a petri dish by scraping and added to AB12 cells into 6-well plates. AB12 cells and J774 macrophages were co-incubated for 16 h at 37°C and 5% CO2, detached by scraping, centrifuged (300 × g, 5 min), and the pellets were resuspended in PBS for immediate analysis using a CytoFLEX Flow Cytometer (Beckman Coulter, USA). The percentage of phagocytosis was determined by calculating the number of double-positive macrophages (Q2) over the total number of macrophages (Q2 + Q3). Dot plots […]
analysis of the flow cytometry data. […]
concentrations for 100 min at 37 °C. […] Cell death was evaluated by flow cytometry using a CytoFLEX Flow Cytometer equipped with a 488 nm laser and a 638 nm laser (Beckman Coulter, Brea, CA, USA). The cells were excited by the 488 nm laser, and fluorescence emissions were detected at 525/40 nm for FITC (Annexin V) and at 610/20 nm for ECD (PI).
The percentage of necrosis was determined by calculating the sum of cells in Q1 and Q2. […]

[1] = tested on: AB12 cells in BALB/c mice; assay: In vivo vaccination model; parameters: species or system mouse; details: n = 8

Row | SMILES | necrosis level (Q1 + Q2) (AB12 cells) | mice that developed tumors by Day 51 [1]
1 | F[P-](F)(F)(F)(F)F.c1cc[c]2c(c1)Nc1cccc[n+]1[Au-]21[S]C(=[N+]2CCCCCC2)[S]1 (centres unmarked) [5G] | 6%–8% | 
2 | Nc1nc2[nH]cc(CCc3ccc(C(=O)N[C@@H](CCC(=O)O)C(=O)O)cc3)c2c(=O)[nH]1 [Pemetrexed, pemetrexed, reference compound] |  | four of the eight
